Key:
[1] = test system: Enterococcus faecium L 1652; test: MIC, glycopeptide-resistant Enterococcus faecium L 1652; type: cell-based
[2] = test system: Enterococcus faecium L 565; test: MIC, glycopeptide-resistant Enterococcus faecium L 565; type: cell-based
[3] = test system: Enterococcus faecium L 1666; test: MIC, glycopeptide-resistant Enterococcus faecium L 1666; type: cell-based
[4] = test system: Enterococcus faecium L 1681; test: MIC, glycopeptide-resistant Enterococcus faecium L 1681; type: cell-based
[5] = test system: Enterococcus faecium L 1680; test: MIC, glycopeptide-resistant Enterococcus faecium L 1680; type: cell-based
Entero. faecalis L 562 = test: MIC, microbroth dilution, Entero. faecalis L 562; type: cell-based, Enterococcus faecalis
[6] = test system: Enterococcus faecium L 564; test: MIC, glycopeptide-resistant Enterococcus faecium L 564; type: cell-based
[7] = test system: Enterococcus faecium L 1686; test: MIC, glycopeptide-resistant Enterococcus faecium L 1686; type: cell-based
[8] = test system: highly glycopeptide-resistant enterococci; test: in vitro activity against highly glycopeptide-resistant enterococci (summary); type: cell-based
[9] = test system: Enterococcus faecium L 1650; test: MIC, glycopeptide-resistant Enterococcus faecium L 1650; type: cell-based
[10] = test system: Enterococcus faecium L 569; test: MIC, glycopeptide-resistant Enterococcus faecium L 569; type: cell-based
[11] = test system: Enterococcus faecium L 1683; test: MIC, glycopeptide-resistant Enterococcus faecium L 1683; type: cell-based
Strep. pneumoniae L 44 = test: MIC, microbroth dilution, Strep. pneumoniae L 44; type: cell-based; conditions: Table II
Neisseria gonorrh. L 997 = test: MIC, microbroth dilution, Neisseria gonorrh. L 997; type: cell-based, Neisseria gonorrhoeae; conditions: Table II
Entero. faecalis L 149 = test: MIC, microbroth dilution, Entero. faecalis L 149; type: cell-based; conditions: Table II
[12] = test system: Enterococcus faecalis L 560; test: MIC, glycopeptide-resistant Enterococcus faecalis L 560; type: cell-based; conditions: Table III
Staph. aureus L 165 = test: MIC, microbroth dilution, Staph. aureus L 165; type: cell-based; conditions: Table II
[13] = test system: Enterococcus faecalis L 563; test: MIC, glycopeptide-resistant Enterococcus faecalis L 563; type: cell-based; conditions: Table III
Staph. epidermidis L 147 = test: MIC, microbroth dilution, Staph. epidermidis L 147; type: cell-based; conditions: Table II
Staph. aureus L 561 = test: MIC, microbroth dilution, Staph. aureus L 561; type: cell-based; conditions: Table II
Proteus vulgaris L 79 = test: MIC, microbroth dilution, Proteus vulgaris L 79; type: cell-based; conditions: Table II
Strep. pyogenes L 49 = test: MIC, microbroth dilution, Strep. pyogenes L 49; type: cell-based; conditions: Table II
Staph. epidermidis L 533 = test: MIC, microbroth dilution, Staph. epidermidis L 533; type: cell-based; conditions: Table II
Pseudomonas aerug. L 4 = test: MIC, microbroth dilution, Pseudomonas aerug. L 4; type: cell-based; conditions: Table II
Esch. coli L 47 = test: MIC, microbroth dilution, Esch. coli L 47; type: cell-based; conditions: Table II
Strep. pyogenes C 203 = test: experimental streptococcal septicemia in mice; type: in vivo; conditions: Strep. pyogenes C 203 septicemia, adm. route sc
Description: The experiments have been carried out according to the procedure described by V. Arioli et al., Journal of Antibiotics 29, 511 (1976).

[14] = test system: Staph. haemolyticus L 602; test: MIC, microbroth dilution, Staph. haemolyticus L 602; type: cell-based; conditions: Table II

`CN[C@H](CC(C)C)C(=O)N[C@H]1C(=O)N[C@@H](CC(N)=O)C(=O)N[C@H]2C(=O)N[C@H]3C(=O)N[C@H](C(=O)N[C@H](C(=O)O)c4cc(O)cc(O)c4-c4cc3ccc4O)[C@H](O)c3ccc(c(Cl)c3)Oc3cc2cc(c3O[C@@H]2O[C@H](CO)[C@@H](O)[C@H](O)[C@H]2O[C@H]2C[C@](C)(N)[C@H](O)[C@H](C)O2)Oc2ccc(cc2Cl)[C@H]1O` [VANCOMYCIN, vancomycin] gave an MIC ([1]; Enterococcus faecium, L1652) of over 128 µg/mL, an MIC ([2]; Enterococcus faecium, L565) of over 128 µg/mL and an MIC ([3]; Enterococcus faecium, L1666) of over 128 µg/mL. The MIC ([4]; Enterococcus faecium, L1681) was over 128 µg/mL, the MIC ([5]; Enterococcus faecium, L1680) was over 128 µg/mL and the MIC (Entero. faecalis L 562; Enterococcus faecalis, L562) was over 128 µg/mL. For the same compound, the MIC ([6]; Enterococcus faecium, L564) was over 128 µg/mL, the MIC ([7]; Enterococcus faecium, L1686) was over 128 µg/mL and the “in vitro activity / resistance in words” value [8] was “highly resistant”. For the same compound, the MIC ([9]; Enterococcus faecium, L1650) was over 128 µg/mL, the MIC ([10]; Enterococcus faecium, L569) was over 128 µg/mL and the MIC ([11]; Enterococcus faecium, L1683) was over 128 µg/mL.
Compound teicoplanin has an MIC ([1]; Enterococcus faecium L 1652, Table III) of over 128 µg/mL, an MIC (Strep. pneumoniae L 44) of 0.06 µg/mL and an MIC (Neisseria gonorrh. L 997) of 32 µg/mL. The MIC (Entero. faecalis L 149) was 0.13 µg/mL, the MIC ([2]; Enterococcus faecium L 565, Table III) was over 128 µg/mL and the MIC [12] was over 128 µg/mL. For the same compound, the MIC ([3]; Enterococcus faecium L 1666, Table III) was over 128 µg/mL, the MIC (Staph. aureus L 165) was 0.25 µg/mL and the MIC ([4]; Enterococcus faecium L 1681, Table III) was over 128 µg/mL. The MIC ([5]; Enterococcus faecium L 1680, Table III) was over 128 µg/mL, the MIC (Entero. faecalis L 562; Entero. faecalis L 562, Table II) was over 128 µg/mL and the MIC (Entero. faecalis L 562; Enterococcus faecalis L 562, Table III) was over 128 µg/mL. For the same compound, the MIC [13] was over 128 µg/mL, the MIC (Staph. epidermidis L 147) was 4 µg/mL and the MIC ([6]; Enterococcus faecium L 564, Table III) was over 128 µg/mL. The MIC (Staph. aureus L 561) was 8 µg/mL, the MIC ([7]; Enterococcus faecium L 1686, Table III) was over 128 µg/mL and the MIC (Proteus vulgaris L 79) was over 128 µg/mL. The MIC (Strep. pyogenes L 49) was 0.13 µg/mL, the “in vitro activity / resistance in words” value [8] was “highly resistant” and the MIC (Staph. epidermidis L 533) was 8 µg/mL. For the same compound, the MIC (Pseudomonas aerug. L 4) was over 128 µg/mL, the MIC (Esch. coli L 47) was over 128 µg/mL and the ED50 (Strep. pyogenes C 203) was 0.16 mg/kg. The MIC [14] was 32 µg/mL, the MIC ([9]; Enterococcus faecium L 1650, Table III) was over 128 µg/mL and the MIC ([10]; Enterococcus faecium L 569, Table III) was over 128 µg/mL. The MIC ([11]; Enterococcus faecium L 1683, Table III) was over 128 µg/mL.

— patent publication US5750509A, “Amide derivatives of antibiotic A 40926” (Gruppo Lepetit S.p.A., priority 1991, dated 1998)
